Patent US9108920B2, “Diazeniumdiolate heterocyclic derivatives” (Merck Sharp & Dohme Corp., priority 2010, dated 2015)

System: Male beagle dogs
Assay: canine telemetry protocol, blood pressure reduction efficacy
Assay type: in vivo
Conditions: change from baseline, 3 mg/kg oral gavage; for ΔPP (mm Hg) 1-6 h / ΔPP (mm Hg) 6-12 h / ΔPP (mm Hg) 12-18 h: pulse pressure; for ΔSBP (mm Hg) 1-6 h / ΔSBP (mm Hg) 6-12 h / ΔSBP (mm Hg) 12-18 h: systolic blood pressure
Description: Compounds of the invention were evaluated for blood pressure reduction efficacy using the following canine telemetry protocol described below.
Male beagle dogs (approximately 1-3 years old) with a body weight of between 10 and 16 kg were surgically implanted with DSI radiotelemetry devices (model: TL11M2-D70-PCT). Briefly, under an inhalant anesthesia, isoflurane/oxygen mixture (1-3.5%/to effect), the body of the telemetry device was positioned and secured intra-abdominally. Subsequently, the arterial catheter of the telemetry device was passed subcutaneously to the inguinal area and introduced into the femoral artery and advanced to the level of the descending aorta. The catheter was secured with 2-0 silk ligatures. The muscle and underlying fascia was closed over the catheter using absorbable suture and the skin was closed using non-absorbable suture. The animals were allowed a minimum recovery period of 2 weeks between surgery and the evaluation of test compounds.
Compound evaluation consisted of a 3 day paradigm at a 3 mg/kg dose. On the first day, no compounds were administered during a 24 hour period of baseline data collection. Blood pressure and heart rate data were collected continuously for one minute periods at 10 minute intervals. On the days of compound administration half the animals received test article with the other half receiving the vehicle used for compound formulation. All test materials were administered by oral gavage in a volume of 1 mL/kg. Data are expressed either as raw values (mm Hg or beats per minute) or as the change from baseline (average value for about 12 hours in low activity period prior to dosing).

Compound	ΔPP (mm Hg) 1-6 h [mm Hg]	ΔPP (mm Hg) 6-12 h [mm Hg]	ΔPP (mm Hg) 12-18 h [mm Hg]	ΔSBP (mm Hg) 1-6 h [mm Hg]	ΔSBP (mm Hg) 6-12 h [mm Hg]	ΔSBP (mm Hg) 12-18 h [mm Hg]
CCN(/[N+]([O-])=N/OC1CCN(c2ccc(C#N)cn2)CC1)C(C)(C)C [Example 48, O^2-[1-(5-cyanopyridin-2-yl)piperidin-4-yl]1-(N-tert-butyl-N-ethylamino)diazen-1-ium-1,2-diolate]	−17	−16	−15	−16	−12	−11
CN(/[N+]([O-])=N/O[C@@H]1CCN(Cc2ccccc2)C1)C(C)(C)C [Example 28, O^2-[(3R)-1-benzylpyrrolidin-3-yl]1-(N-tert-butyl-N-methylamino)diazen-1-ium-1,2-diolate]	−12	−10	−5	−21	−14	−7
O^2-[(3R)-1-(3-methoxyphenyl)-2-oxopyrrolidin-3-yl]1-(N-tert-butyl-N-methylamino)diazen-1-ium-1,2-diolate [Example 64]	−12	−15	−13	−13	−12	−11
CN(/[N+]([O-])=N/O[C@@H]1CCN(C(=O)OC(C)(C)C)C1)C(C)(C)C [Example 1, O^2-[(3R)-1-(tert-butoxycarbonyl)pyrrolidin-3-yl]1-(N-tert-butyl-N-methylamino)diazen-1-ium-1,2-diolate]	−16	−17	−15	−16	−15	−11
CCN(/[N+]([O-])=N/OC1CCN(C(=O)OC(C)(C)C)CC1)C(C)(C)C [Example 6, O^2-[1-(tert-butoxycarbonyl)piperidin-4-yl]1-(N-tert-butyl-N-ethylamino)diazen-1-ium-1,2-diolate]	−19	−17	−15	−25	−16	−9
CCN(/[N+]([O-])=N/O[C@@H]1CCN(C(=O)NC(C)(C)C)C1)C(C)(C)C [Example 59, O^2-[(3R)-1-(tert-butylcarbamoyl)pyrrolidin-3-yl]1-(N-tert-butyl-N-ethylamino)diazen-1-ium-1,2-diolate]	−17	−16	−15	−19	−18	−17
CCN(/[N+]([O-])=N/O[C@@H]1CCN(CC(F)(F)F)C1)C(C)(C)C [Example 32, O^2-[(3R)-1-(2,2,2-trifluoroethyl)pyrrolidin-3-yl]-1-(N-tert-butyl-N-ethylamino)diazen-1-ium-1,2-diolate]	−23	−15	−10	−32	−16	−5
